Compound | melting point [°C]
FC(F)(F)COc1ccc(-n2c(NCc3ccc(Cl)cc3)nc3ccc(Cl)cc32)cc1 [Example 79, 6-Chloro-N-(4-chlorobenzyl)-1-[4-(2,2,2-trifluoroethoxy)phenyl]-1H-benzimidazol-2-amine] | 150 to 151
COc1ccccc1-n1c(SCc2ccc(Cl)cc2)nc2ccc(Cl)cc21 [Example 18, 6-Chloro-2-[(4-chlorobenzyl)thio]-1-(2-methoxyphenyl)-1H-benzimidazole] | 124 to 125
COc1cccc(-n2c(SCc3ccc(Cl)cc3)nc3ccc(Cl)cc32)c1 [Example 17, 6-Chloro-2-[(4-chlorobenzyl)thio]-1-(3-methoxyphenyl)-1H-benzimidazole] | 100 to 101
Clc1ccc(CSc2nc3ccc(Cl)cc3n2-c2ccc(C3=NCCO3)cc2)cc1 [Example 124, 6-Chloro-2-[(4-chlorobenzyl)thio]-1-[4-(4,5-dihydro-1,3-oxazol-2-yl)phenyl]-1H-benzimidazole] | 143 to 144
FC(F)(F)COc1ccc(-n2c(NCc3ccc(Cl)cc3)nc3cc(Cl)c(Cl)cc32)cc1 [Example 104, 5,6-Dichloro-N-(4-chlorobenzyl)-1-[4-(2,2,2-trifluoroethoxy)phenyl]-1H-benzimidazol-2-amine] | 138 to 139
CCOC(=O)N1CCC(n2c(SCc3ccc(Br)cc3)nc3ccc(Cl)cc32)CC1 [Example 59, Ethyl 4-{2-[(4-bromobenzyl)thio]-6-chloro-1H-benzimidazol-1-yl}piperidine-1-carboxylate] | 123 to 124
FC(F)(F)Oc1ccc(-n2c(SCc3ccc(Cl)cc3)nc3cc(Cl)c(Cl)cc32)cc1 [Example 142, 5,6-Dichloro-2-[(4-chlorobenzyl)thio]-1-[4-(trifluoromethoxy)phenyl]-1H-benzimidazole] | 111 to 112
CCCCOc1ccc(-n2c(NCc3ccc(Cl)cc3)nc3cc(Cl)ccc32)cc1 [Example 87, 1-(4-Butoxyphenyl)-5-chloro-N-(4-chlorobenzyl)-1H-benzimidazol-2-amine] | 100 to 101
Clc1ccc2nc(SCc3ccccc3)n(-c3ccccc3)c2c1 [Example 49, 2-(Benzylthio)-6-chloro-1-phenyl-1H-benzimidazole] | 82 to 83
Clc1ccc(CSc2nc3ccc(Cl)cc3n2-c2ccc(-c3cnco3)cc2)cc1 [Example 136, 6-Chloro-2-[(4-chlorobenzyl)thio]-1-[4-(1,3-oxazol-5-yl)phenyl]-1H-benzimidazole] | 130 to 131
COCOc1ccc(-n2c(SCc3cccnc3)nc3ccc(Cl)cc32)cc1 [Example 56, 6-Chloro-1-[4-(methoxymethoxy)phenyl]-2-[(pyridin-3-ylmethyl)thio]-1H-benzimidazole] | 101 to 102
CCOC(=O)N1CCC(n2c(SCc3ccc(Cl)cc3)nc3ccc(Cl)cc32)CC1 [Example 58, Ethyl 4-{6-chloro-2-[(4-chlorobenzyl)thio]-1H-benzimidazol-1-yl}piperidine-1-carboxylate] | 118 to 119
Clc1ccc(CSc2nc3ccc(Cl)cc3n2-c2ccccn2)cc1 [Example 130, 6-Chloro-2-[(4-chlorobenzyl)thio]-1-(pyridin-2-yl)-1H-benzimidazole] | 107 to 108
CCCCOc1ccc(-n2c(NCc3ccc(Br)cc3)nc3ccc(Cl)cc32)cc1 [Example 77, N-(4-Bromobenzyl)-1-(4-butoxyphenyl)-6-chloro-1H-benzimidazol-2-amine] | 123 to 124

Other lines, results leading:

melting point [°C] | Compound
265 to 266 | O=C(O)c1ccc(-n2c(SCc3ccc(Cl)cc3)nc3ccc(Cl)cc32)cc1 [Example 42, 4-{6-Chloro-2-[(4-chlorobenzyl)thio]-1H-benzimidazol-1-yl}benzoic acid]
88 to 89 | FC(F)(F)Oc1ccc(-n2c(SCc3ccc(Cl)cc3)nc3ccc(Cl)cc32)cc1 [Example 141, 6-Chloro-2-[(4-chlorobenzyl)thio]-1-[4-(trifluoromethoxy)phenyl]-1H-benzimidazole]
133 to 134 | CCOC(=O)c1ccc2c(c1)nc(SCc1ccc(Cl)cc1)n2-c1ccc(OCC)cc1 [Example 107, Ethyl 2-[(4-chlorobenzyl)thio]-1-(4-ethoxyphenyl)-1H-benzimidazole-5-carboxylate]
173 to 175 | CCOc1ccc(-n2c(NCc3ccc(Cl)cc3)nc3ccc(Cl)cc32)cc1.Cl [Example 68, N-(4-Chlorobenzyl)-6-chloro-1-(4-ethoxyphenyl)-1H-benzimidazol-2-amine hydrochloride]
80 to 81 | COc1ccc(-n2c(SCc3ccc(Cl)cc3)nc3ccc(OC)cc32)cc1 [Example 20, 2-[(4-Chlorobenzyl)thio]-6-methoxy-1-(4-methoxyphenyl)-1H-benzimidazole]
130 to 131 | CCOc1ccc(-n2c(SCc3ccc(Cl)cc3)nc3cccc(Cl)c32)cc1 [Example 138, 7-Chloro-2-[(4-chlorobenzyl)thio]-1-(4-ethoxyphenyl)-1H-benzimidazole]
96 to 100 | Cl.FC(F)(F)Oc1ccc(-n2c(SCc3ccc(Cl)cc3)nc3cc(Cl)ccc32)cc1
162 to 163 | CC(C)C(=O)c1ccc(-n2c(SCc3ccc(Cl)cc3)nc3ccc(Cl)cc32)cc1 [Example 41, 1-(4-{6-Chloro-2-[(4-chlorobenzyl)thio]-1H-benzimidazol-1-yl}phenyl)-2-methylpropan-1-one]
154 to 155 | CCOc1ccc(-n2c(SCc3ccc(C#N)cc3)nc3ccc(Cl)cc32)cc1 [Example 35, 4-({[6-Chloro-1-(4-ethoxyphenyl)-1H-benzimidazol-2-yl]thio}methyl)benzonitrile]
136 to 137 | CCOc1ccc(-n2c(SCc3ccc(Br)cc3)nc3ccc(Cl)cc32)cc1 [Example 30, 2-[(4-Bromobenzyl)thio]-6-chloro-1-(4-ethoxyphenyl)-1H-benzimidazole]
137 to 138 | Clc1ccc(CSc2nc3cc(Cl)ccc3n2-c2ccc(OCc3ccccc3)cc2)cc1 [Example 133, 1-[4-(Benzyloxy)phenyl]-5-chloro-2-[(4-chlorobenzyl)thio]-1H-benzimidazole]
143 to 144 | CCOc1ccc(-n2c(SCc3ccc(Br)cc3)nc3cccc(Cl)c32)cc1 [Example 137, 2-[(4-Bromobenzyl)thio]-7-chloro-1-(4-ethoxyphenyl)-1H-benzimidazole]
97 to 98 | COCc1ccc(-n2c(SCc3ccc(Cl)cc3)nc3ccc(Cl)cc32)cc1 [Example 116, 6-Chloro-2-[(4-chlorobenzyl)thio]-1-[4-(methoxymethyl)phenyl]-1H-benzimidazole]
95 to 98 | CCOc1ccc(-n2c(SC(C)c3ccc(Br)cc3)nc3ccc(Cl)cc32)cc1 (stereo not drawn) [Example 48, 2-{[1-(4-Bromophenyl)ethyl]thio}-6-chloro-1-(4-ethoxyphenyl)-1H-benzimidazole]
113 to 114 | OCCOc1ccc(-n2c(SCc3ccc(Cl)cc3)nc3ccc(Cl)cc32)cc1 [Example 16, 2-(4-{6-Chloro-2-[(4-chlorobenzyl)thio]-1H-benzimidazol-1-yl}phenoxy)ethanol]
135 to 138 | CCOc1ccc(-n2c(NCc3ccc(Br)cc3)nc3ccc(Cl)cc32)cc1.Cl [Example 69, N-(4-Bromobenzyl)-6-chloro-1-(4-ethoxyphenyl)-1H-benzimidazol-2-amine hydrochloride]
